Source: patent US6774143B1, “Method for treating cells resistant to antineoplastic agents” (Novartis AG, priority 2003, dated 2004)

Columns and labels:
Bcl-xL = assay: Western blot, Bcl-xL phosphorylation; format: cell-based, human; conditions: 24 hour treatment
Method: Cells are plated at a density of 1.5×10^6 cells per 100 mm plate. The next day cells are treated with vehicle control (0.1% DMSO) or test compound for 24 h. Cells are harvested by washing monolayers twice with PBS, then lysing with 300 ul of lysis buffer[20 mM Tris (pH 8.0), […], 100 mM NaCl, 0.5% NP40, 0.0125% DOC, 2.5% glycerol, 1 mM vanadate, 25 mM sodium fluoride and protease inhibitor cocktail (1:500 dilution, Sigma)]. Lysates were spun at 12,000× g and the supernatant transferred to a new tube. Protein concentration of the lysates is determined using BCA protein assay Reagent (Pierce). Samples (75 μg) are resolved by SDS-PAGE on a 7.5% or 14% tris-glycine gel for Raf-1 and Bcl-xL, respectively, and transferred to nitrocellulose. Immunodetection is performed as described by Amersham Vistra Fluorescence Western blotting Kit directions with the following modifications: the membrane is blocked with 5% milk (Carnation Non-Fat Dry Milk) in buffer containing 20 mM Tris-HCl (pH=7.4), 100 mM NaCl, and 0.2% Tween 20 (TBST) overnight and is subsequently incubated for 2 h with primary antibody (Santa Cruz C-12 for Raf-1 and Santa Cruz H-62 for Bcl-xL), followed by fluorescein-linked anti-rabbit Ig in 5% milk and anti-fluorescein alkaline phosphatase conjugate in TBST at 1:500 and 1:2000 dilutions, respectively. A Storm 860 (Molecular Dynamics) is used to detect fluorescent product according to the manufacturer's instructions.

1A9PTX22 cell line = assay: In vivo hollow fiber assay in nude mice
Method: (§1) PVDF hollow fibers (Spectrum, Gardena, Calif.) are soaked in 70% EtOH for 72 hours before use. After this step, all handling of fibers are done under a biological laminar flow hood using aseptic procedures. Individual fibers are flushed with 3 mL of the ice-cold tissue culture media using a syringe equipped with a 20-gauge needle. Next, each fiber is filled with an appropriate cell suspension (1×10^6 cells/mL for the 1A9 and 1A9PTX22 cells, and 0.5×10^6 cells/mL for the LS 174T cells), and both ends of the fiber are sealed with a hot flat needle holder. The entire length of the fiber is then sealed into 1.5 cm microcapsules (further called “hollow fibers”), each containing approximately 15 uL of the appropriate cell suspension. After separation, individual hollow fibers are placed in 6 well plates (6 fibers in 5 mL media per well), and are incubated overnight at 37° C. in the tissue culture incubator.
(§2) Outbred athymic (nu/nu) female mice (“Chrls:Athymic Nude-nu”, Charles River Laboratories, Wilmington, Mass.) are anesthetized with ip injections of Ketamine/Xylazine (150 mg/kg, and 12 mg/kg body weight, respectively). For the subcutaneous implantation an 11-gauge trocar containing one or two hollow fibers is inserted into an incision made with scissors at the nape of the neck of an animal, and fibers are released by retracting the trocar while depressing the plunger. This procedure is repeated until all three hollow fibers are implanted. One wound clip is used to close the skin incision After the surgery each animal receives a single, subcutaneous injection of 0.4 mg/kg butorphenol to relieve any potential pain. Animals recover from the anesthesia on a heating pad, before retuning to their cages.
(§3) One day after the implantation (3 hollow fibers/animal, each hollow fiber containing one cell line: LS 174T, 1A9, and 1A9PTX22) animals are randomly sorted into five groups of six mice/group. The first group is sacrificed; hollow fibers are retrieved, and processed according to a published procedure (Hollingshead M G, et al. Life Sciences 1995, 57(2):131-141), to determine the number of viable cells in each fiber (T0.)
(§4) On day 6 all animals are sacrificed, and hollow fibers are retrieved, and processed according to Hollingshead, M G, (supra) to determine the number of viable cells in each fiber (T—for fibers from animals treated with experimental compounds, C—for fibers from animals treated with corresponding vehicles). Antitumor activity is expressed as % Mean ΔT/Mean ΔC [comparing cell growth for treatment group to vehicle control group, where % Mean ΔT/Mean ΔC=(Mean T—Mean T0/Mean C—Mean T0)×100%]. Regressions are calculated using the formula: (1−Mean T/Mean T0)×100%. Statistical significance of the results is uniformly evaluated using a two-tailed Student's t-test.
(§5) Discodermolide is isolated from the sponge Discodermia dissoluta using the method of Gunasekera SP (supra). Multiple batches of compound of similar purity (all>95% pure, as determined by mass spectrometry, and nuclear magnetic resonance analysis) are used throughout the various studies. For the in vitro cytotoxicity assays all compounds are dissolved in DMSO and are added to the plates with cells to obtain desired concentrations. […] Paclitaxel is purchased from Sigma/Aldrich, (St. Louis, Mo.). For the in vivo hollow fiber assay, solid discodermolide is dissolved in pure ethanol to create a stock solution which is diluted just before dosing with Cremophor EL and D5W to a final concentration of 16.7% Cremophor EL, 8.3% ethanol and 75% D5W. The compound is administered to mice as a single, 15 mg/kg iv injection. Positive control animals receive clinical formulations of paclitaxel (TAXOL) diluted 4-fold with D5W (12.5% Cremophor El, 12.5% ethanol and 75% D5W final concentrations) and administered iv, at 15 mg/kg, once daily for five consecutive days. Vehicle controls are administered according to the corresponding drug schedules.

1A9 cell line = assay: In vivo hollow fiber assay in nude mice
Method: as §1, §2, §3, §4, §5

LS 174T cell line = assay: In vivo hollow fiber assay in nude mice
Method: as §1, §2, §3, §4, §5

[1] = In vivo hollow fiber assay, body weight of the animals; set-up: species or system mice; conditions: both experiments
Method: as §2
One day after the implantation (3 hollow fibers/animal, each hollow fiber containing one cell line: LS 174T, 1A9, and 1A9PTX22) animals are randomly sorted into five groups of six mice/group. […]
Discodermolide is isolated from the sponge Discodermia dissoluta using the method of Gunasekera SP (supra). Multiple batches of compound of similar purity (all>95% pure, as determined by mass spectrometry, and nuclear magnetic resonance analysis) are used throughout the various studies. […]

[2] = first experiment, discodermolide single 15 mg/kg iv
[3] = second experiment, discodermolide single 15 mg/kg iv
[4] = first experiment, paclitaxel iv 15 mg/kg once daily for 5 days
[5] = second experiment, paclitaxel iv 15 mg/kg once daily for 5 days

C=C/C=C\[C@H](C)[C@H](OC(N)=O)[C@@H](C)[C@H](O)[C@@H](C)C/C(C)=C\[C@H](C)[C@@H](O)[C@@H](C)/C=C\[C@@H](O)C[C@@H]1OC(=O)[C@H](C)[C@@H](O)[C@H]1C [discodermolide, (+)-Discodermolide]
Bcl-xL phosphorylation (Bcl-xL; A549 cells): phosphorylated | Bcl-xL phosphorylation (Bcl-xL; MDA-MB-435 cells): phosphorylated | T/C (1A9PTX22 cell line; [2]): −13% | regression (1A9PTX22 cell line; first study, discodermolide single 15 mg/kg iv, p<0.01): 13% | T/C (1A9PTX22 cell line; [3]): 13% | T/C (1A9 cell line; [2]): 8% | T/C (1A9 cell line; [3]): 14% | T/C (LS 174T cell line; [2]): 7% | T/C (LS 174T cell line; [3]): 13% | body weight lost ([1]; discodermolide single 15 mg/kg iv): 10%

CC(=O)O[C@H]1C(=O)[C@@]2(C)[C@H]([C@H](OC(=O)c3ccccc3)[C@]3(O)C[C@H](OC(=O)[C@H](O)[C@@H](NC(=O)c4ccccc4)c4ccccc4)C(C)=C1C3(C)C)[C@]1(OC(C)=O)CO[C@@H]1C[C@@H]2O [paclitaxel, reference compound]
Bcl-xL phosphorylation (Bcl-xL; A549 cells): phosphorylated | Bcl-xL phosphorylation (Bcl-xL; MDA-MB-435 cells): phosphorylated | T/C (1A9PTX22 cell line; [4]): 79% | T/C (1A9PTX22 cell line; [5]): 90% | T/C (1A9 cell line; [4]): −8% | T/C (1A9 cell line; [5]): 2% | T/C (LS 174T cell line; [4]): 3% | T/C (LS 174T cell line; [5]): 8% | body weight lost ([1]; paclitaxel iv 15 mg/kg once daily for 5 days): 5%
